# Data from patent US5726302A, “Water soluble adenosine kinase inhibitors” (Gensia Inc., priority 1995, dated 1998).
# pIC50, pKi: −log10 of the molar value. Like-named read-outs stand apart in the source and are kept apart here.
# Key:
# [1] = tested on: male SA rats; assay: Analgesic activity, tail flick; assay type: in vivo; conditions: Rattus norvegicus, ip
# [2] = tested on: male SA rats; assay: Analgesic activity, hot plate; assay type: in vivo; conditions: Rattus norvegicus, ip
# [3] = tested on: Rats; assay: Anti-inflammatory activity, carrageenan paw; assay type: in vivo, rat; conditions: 10 mg/kg, swelling after 3 hours
# Description: Carrageenan (Type λ) was suspended in sterile PBS at 1% (w/v), autoclaved for 30 minutes, and stored at room temperature. Rats were pretreated with vehicle or AK inhibitor (10 mg/kg) by oral gavage or i.p. administration and the volume of the left hind paw was measured using a water displacement plethysmometer (Stoelting Co., Wood Dale, Ill.). One hour after oral treatment or 30 minutes after i.p. treatment, the rats were briefly anesthetized, and 0.1 ml of the carrageenan solution was injected subcutaneously into the planar surface of the left hind paw. The ensuing paw swelling was measured by plethysmometry after 3 hours. The paw volume in millileters was subtracted from the pre-injection paw volume. Data are presented as the percent inhibition of paw swelling in AK inhibitor treated animals, compared to vehicle treated control animals.
# [4] = molecular target: partially purified pig heart adenosine kinase (Sus scrofa, UniProt A0A5G2R0F5); assay: biochemical; conditions: for pIC50: pig heart adenosine kinase, 0.5 μM adenosine, pH 7.0, 20 minutes at 37° C, read-out: AK Inhibition (IC50)
# Description: Adenosine kinase activity was measured essentially as described by Yamada et al Biochim. Biophys. Acta 660, 36-43 (1988) with a few minor modifications. Assay mixtures contained 50 mM TRIS-maleate buffer, pH 7.0, 0.1% BSA, 1 mM ATP 1 mM MgCl2, 0.5 μM [U-^14 C] adenosine (400-600 mCi/mmol) and varying duplicate concentrations of inhibitor. The reactions were initiated by addition of approximately 0.1 μU partially purified pig heart adenosine kinase, where one unit is defined as that amount of enzyme required to phosphorylate 1 μmol adenosine per minute. The reactions were incubated for 20 minutes at 37° C. The assay was quenched upon spotting 30 μL aliquots onto 2 cm^2 pieces of Whatman DE81 anion exchange paper. The paper squares were washed for 3 minutes in 6 L distilled/deionized water to remove the unreacted adenosine. […] The amount of ^14 C-AMP was quantified by scintillation counting.
# [5] = tested on: rat cardiomyocytes; conditions: inhibition of adenosine deaminase alone; cited from earlier work
# [6] = Water solubility; assay type: physicochemical; conditions: deionized water (DI)
# Description: The sample was sonicated for a period of up to 20 minutes. If a solution was not obtained, further solvent was added and the process was repeated until a clear solution was obtained, and the results were recorded. Solutions used were 50 mM potassium biphthalate (pH 4); 100 mM glycine (pH 9); 25 mM sodium carbonate and 25 mM sodium bicarbonate (pH 10); or deionized water (DI).
# [7] = tested on: male SA rats; assay: Anticonvulsant activity, maximal electroshock (MES) model; assay type: in vivo; conditions: Rattus norvegicus, 1 h; po; one hour after dosing, fasted
# Description: The anticonvulsant activity of the tested compounds was evaluated in male SA rats (100-150 g, Simonsen) using the maximal electroshock (MES) model described in Swinyard et al., Antiepileptic Drugs, 3d Ed. at 85-102 (Levy, et al., eds.), N.Y.: Raven Press (1989). The rats were maintained on a 12/12 light/dark cycle in temperature controlled facilities with free access to food and water. For p.o. administration, the animals are fasted overnight, prior to the experiment. One hour prior to seizure testing, the animals were injected interperitoneally (ip) or orally (per os, […]) with one of various doses of test compound dissolved in DMSO or PEG 400.
# This endpoint was expressed as the percentage of animals in which the response was inhibited.
# [8] = tested on: isolated guinea pig hearts; conditions: in the absence of ADA inhibition; cited from earlier work
# [9] = molecular target: adenosine kinase; conditions: read-out: Ki, inhibition of adenosine kinase; cited from earlier work
# [10] = tested on: isolated rat hearts; conditions: alone, cited from earlier work
# [11] = tested on: ischemic cerebral injury; conditions: Phillis et al.; cited from earlier work
# [12] = tested on: anesthetized rats; conditions: cited from earlier work
# [13] = tested on: mice; conditions: cited from earlier work
# [14] = tested on: dog hearts; conditions: in vivo; cited from earlier work
# [15] = tested on: mice; assay: HPLC analysis of plasma for metabolism in mice after oral administration; assay type: in vivo; conditions: 10 mg/kg
# [16] = ip, 30 minutes before carrageenan
# [17] = po, one hour before carrageenan
# partially purified pig heart adenosine kinase, sequence (A0A5G2R0F5 1-362): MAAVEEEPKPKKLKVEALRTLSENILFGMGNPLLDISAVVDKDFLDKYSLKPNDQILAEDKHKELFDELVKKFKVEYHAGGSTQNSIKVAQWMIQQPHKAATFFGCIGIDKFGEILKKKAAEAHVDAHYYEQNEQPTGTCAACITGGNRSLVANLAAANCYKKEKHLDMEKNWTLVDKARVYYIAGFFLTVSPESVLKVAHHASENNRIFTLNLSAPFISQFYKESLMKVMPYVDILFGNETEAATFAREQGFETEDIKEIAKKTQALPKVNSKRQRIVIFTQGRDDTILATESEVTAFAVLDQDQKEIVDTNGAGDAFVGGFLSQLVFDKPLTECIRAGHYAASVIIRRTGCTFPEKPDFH
smiles,measurement,setting,value
"C[C@H]1O[C@@H](n2cc(I)c3c(NCc4ccccn4)ncnc32)[C@H](O)[C@@H]1O [Compound 41, 4-N-(2-Pyridylmethylamino)-5-iodo-7-(5-deoxy-1 -β-D-ribofuranosyl)pyrrolo[2,3-d]pyrimidine]",ED50,[1],< 1 mg/kg
same,ED50,[2],1.2 mg/kg
same,Carrageenan Paw (% inhibition) of paw swelling,[3]; [16],84.8%
same,Carrageenan Paw (% inhibition) of paw swelling,[3]; [17],90.6%
same,pIC50,[4],7.15
OC[C@H]1O[C@@H](n2cnc3c2N=CNC[C@H]3O)C[C@@H]1O [2'-deoxycoformycin],effect on adenosine release from the cells,[5],no effect on adenosine release
"C[C@H]1O[C@@H](n2cc(-c3ccccc3)c3c(Nc4ccc(CN(C)C)cc4)ncnc32)[C@H](O)[C@@H]1O [Compound 1, 4-N(N,N-Dimethylaminomethylphenyl)amino-5-phenyl-7-(5-deoxy-β-D-ribofuranosyl)pyrrolo[2,,3-d]pyrimidine]",solubility,[6],> 5000 µg/mL
same,ED50,[1],15 mg/kg
same,ED50,[2],15.2 mg/kg
same,Carrageenan Paw (% inhibition) of paw swelling,[3]; [16],26.0%
same,Carrageenan Paw (% inhibition) of paw swelling,[3]; [17],19.2%
same,ED50,[7],> 20 mg/kg
NC[C@H]1O[C@@H](n2cnc3c(N)ncnc32)[C@H](O)[C@@H]1O [5'-amino-5'-deoxyadenosine],increase of adenosine release,[8],not apparent in the absence of ADA inhibition
same,pKi,[9],> 7.00
"OC[C@H]1O[C@@H](n2cnc3c(NCCCCCCCCCCCCNc4ncnc5c4ncn5[C@@H]4O[C@H](CO)[C@@H](O)[C@H]4O)ncnc32)[C@H](O)[C@@H]1O [1,12-bis(adenosin-N^6-yl)dodecane]",pKi,[9],> 7.00
Nc1ncnc2c1c(I)cn2[C@@H]1O[C@H](CO)[C@@H](O)[C@H]1O [5-iodotubercidin],increase in perfusate adenosine concentration,"[10]; hypoxic, anoxic or ischemic conditions",no increase in perfusate adenosine concentration
same,increase in perfusate adenosine concentration,[10]; normoxic conditions,no increase in perfusate adenosine concentration
same,protection against ischemic cerebral injury,[11],apparently does not protect against ischemic cerebral injury
same,blood pressure,[12],decrease blood pressure
same,heart rate,[12],decrease blood pressure and heart rate
same,general flaccidity (skeletal muscle relaxation),[13],pronounced general flaccidity
same,hypothermia,[13],hypothermia
same,spontaneous locomotor activity,[13],much-reduced spontaneous locomotor activity
same,effects in dog hearts subjected to ischemia and reperfusion,[14],inconsistent effects
"C[C@H]1O[C@@H](n2cc(I)c3c(NCCc4ccccn4)ncnc32)[C@H](O)[C@@H]1O [Compound 43, 4-N-(2-(2-pyridylethyl)amino)-5-iodo-7-(5-deoxy-1-β-D-ribofuranosyl)pyrrolo[2,3-d]pyrimidine]",metabolism in mice shown by HPLC analysis of plasma,[15],generate a potent AK inhibitor
same,Carrageenan Paw (% inhibition) of paw swelling,[3]; [16],58.6%
same,Carrageenan Paw (% inhibition) of paw swelling,[3]; [17],69.7%
same,AK inhibition in vitro,[4]; in vitro,weak AK inhibitor in vitro
same,pIC50,[4],5.00
